Measurements as given in ChEMBL document CHEMBL1201862, “PubChem BioAssay data set” (2004).
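Cultured in 96-well plates, cells were exposed to test compound for 48 hours across five concentrations. Abbreviation: GI50, concentration required for 50% inhibition of growth.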 The source made the active and inactive calls. Cut-off read from the data, not from the text of the source: active = GI50 up to about 1.1 µM and inactive = higher.

Experiments:
Assay in all cases: NCI-60 cell line screen, 48 h
MOLT-4 = test system: MOLT-4
OVCAR-8 = test system: OVCAR-8
HL-60 = test system: HL-60
SR = test system: SR
KM12 = test system: KM12
SW-620 = test system: SW-620
NCI-H23 = test system: NCI-H23
SK-MEL-5 = test system: SK-MEL-5
HCT-116 = test system: HCT-116
HOP-62 = test system: HOP-62
RPMI-8226 = test system: RPMI-8226
IGROV-1 = test system: IGROV-1
OVCAR-3 = test system: OVCAR-3
HCC 2998 = test system: HCC 2998
UO-31 = test system: UO-31
RXF 393 = test system: RXF 393
A498 = test system: A498
U-251 = test system: U-251

Measured: GI50

CC(=O)CN(Cc1cc(C)c2c(c1)c1ccccc1n2Cc1ccccc1)S(=O)(=O)c1ccc(C)cc1
inactive: MOLT-4 > 100 µM | OVCAR-8 > 100 µM | HL-60 > 100 µM | SR > 100 µM | KM12 > 100 µM | SW-620 > 100 µM | NCI-H23 > 100 µM | SK-MEL-5 > 100 µM | HCT-116 > 100 µM | HOP-62 > 100 µM | RPMI-8226 > 100 µM | IGROV-1 > 100 µM | OVCAR-3 > 100 µM | HCC 2998 > 100 µM | UO-31 57.7 µM

COCCOCOc1ccc(OCOCCOC)c2c1C(=O)c1ccccc1C2=O
inactive: MOLT-4 21.6 µM | OVCAR-8 45.4 µM | HL-60 18.4 µM | RXF 393 29.4 µM | KM12 > 75.9 µM | SW-620 36.5 µM | NCI-H23 74.1 µM | SK-MEL-5 51.8 µM | HCT-116 29.4 µM | HOP-62 > 100 µM | A498 68.7 µM | U-251 41.9 µM | IGROV-1 99.1 µM | OVCAR-3 36.9 µM | HCC 2998 61.7 µM | UO-31 28.7 µM

COc1cc2cccc(NC(=O)c3cc(OC)c(OC)c(OC)c3Br)c2cc1OC
inactive: MOLT-4 2.79 µM | OVCAR-8 12.9 µM | KM12 11.1 µM | SW-620 24.8 µM | NCI-H23 8 µM | SK-MEL-5 3.24 µM | HCT-116 11.9 µM | HOP-62 17.3 µM | A498 30.5 µM | U-251 22.3 µM | RPMI-8226 2.45 µM | IGROV-1 14.4 µM | OVCAR-3 13.4 µM | HCC 2998 28.8 µM | UO-31 5.9 µM

COc1ccc(-c2cc(O)c3cc4c(cc3n2)OCO4)cc1OC
inactive: MOLT-4 > 100 µM | OVCAR-8 > 100 µM | HL-60 > 100 µM | RXF 393 > 100 µM | SR 45 µM | KM12 > 100 µM | SW-620 > 100 µM | NCI-H23 > 100 µM | SK-MEL-5 65.6 µM | HCT-116 > 100 µM | HOP-62 > 100 µM | U-251 > 100 µM | RPMI-8226 > 100 µM | IGROV-1 > 100 µM | OVCAR-3 > 100 µM | HCC 2998 > 100 µM | UO-31 > 100 µM

Cn1nc(-c2ccccc2NC(=O)C(F)(F)F)c(=O)n(C)c1=S
inactive: MOLT-4 22.6 µM | OVCAR-8 23.9 µM | RXF 393 39.9 µM | SR 18.1 µM | KM12 25.7 µM | SW-620 34.5 µM | NCI-H23 29.2 µM | SK-MEL-5 > 100 µM | HCT-116 38.1 µM | HOP-62 69.7 µM | U-251 27 µM | IGROV-1 63.2 µM | OVCAR-3 18.5 µM | HCC 2998 46.1 µM | UO-31 21.7 µM

CC(=O)Nc1ccc(/C=C(\NC(=O)c2ccccc2)c2nc3ccc4c(c3[nH]2)C(=O)c2ccccc2C4=O)cc1
inactive: MOLT-4 2.88 µM | OVCAR-8 22.1 µM | RXF 393 4.66 µM | SW-620 18.9 µM | NCI-H23 21.6 µM | SK-MEL-5 21.8 µM | HCT-116 12.2 µM | HOP-62 > 100 µM | A498 7.78 µM | U-251 16.4 µM | RPMI-8226 4.46 µM | IGROV-1 7.13 µM | OVCAR-3 12.4 µM | HCC 2998 > 100 µM | UO-31 1.59 µM

N#Cc1c(-c2ccccc2)cc(-c2cccs2)c(C#N)c1N
inactive: MOLT-4 > 100 µM | OVCAR-8 > 100 µM | HL-60 > 100 µM | KM12 > 100 µM | SW-620 > 100 µM | SK-MEL-5 > 100 µM | HCT-116 > 100 µM | HOP-62 > 100 µM | A498 > 100 µM | U-251 > 100 µM | RPMI-8226 > 100 µM | IGROV-1 > 10 µM | OVCAR-3 > 100 µM | HCC 2998 > 100 µM

CC(=O)NC(CCCCNC(=O)N(CCCl)N=O)C(=O)NCc1ccccc1 (stereo unspecified)
inactive: MOLT-4 > 100 µM | OVCAR-8 > 100 µM | HL-60 > 100 µM | SR 91.6 µM | KM12 > 100 µM | SW-620 > 100 µM | NCI-H23 > 100 µM | HCT-116 > 100 µM | HOP-62 > 100 µM | U-251 61.7 µM | RPMI-8226 > 100 µM | IGROV-1 51.8 µM | OVCAR-3 > 100 µM | HCC 2998 > 100 µM | UO-31 > 100 µM

COc1ccc(NC(=O)CSc2nnc(-c3ccc(NC(C)=O)cc3)o2)cc1
inactive: MOLT-4 17.4 µM | OVCAR-8 20.7 µM | HL-60 21.9 µM | RXF 393 14.5 µM | KM12 15.1 µM | NCI-H23 10.7 µM | SK-MEL-5 13.2 µM | HCT-116 14.6 µM | HOP-62 34.1 µM | A498 15.5 µM | U-251 15.7 µM | IGROV-1 15.5 µM | OVCAR-3 17.8 µM | HCC 2998 19.7 µM | UO-31 17.7 µM

COc1ccccc1CCc1cc(OC)c(OC)c(OC)c1
inactive: MOLT-4 23.9 µM | OVCAR-8 45.9 µM | HL-60 11 µM | RXF 393 20.9 µM | KM12 38.5 µM | SW-620 47.5 µM | SK-MEL-5 19.5 µM | HCT-116 37.1 µM | HOP-62 > 100 µM | A498 57.9 µM | U-251 40.4 µM | RPMI-8226 20.2 µM | IGROV-1 49.9 µM | OVCAR-3 41.3 µM | UO-31 22.9 µM

OC1C2CCC1C1C3C=CC(C3)C21 (stereo unspecified)
inactive: MOLT-4 64.9 µM | OVCAR-8 > 100 µM | HL-60 38.1 µM | RXF 393 47 µM | SR 54.7 µM | KM12 99.3 µM | SW-620 > 100 µM | NCI-H23 52.1 µM | SK-MEL-5 87.3 µM | HCT-116 79.4 µM | HOP-62 > 100 µM | U-251 > 100 µM | RPMI-8226 42.9 µM | IGROV-1 > 100 µM | OVCAR-3 > 100 µM | UO-31 > 100 µM

Cc1ccc(-n2c(C)nc3c2C(=O)c2ccccc2C3=O)cc1
inactive: MOLT-4 > 100 µM | OVCAR-8 17.4 µM | HL-60 9.14 µM | RXF 393 > 100 µM | SR > 100 µM | KM12 > 100 µM | SW-620 33.5 µM | NCI-H23 25.9 µM | SK-MEL-5 15.2 µM | HCT-116 5.73 µM | HOP-62 41.2 µM | U-251 9.46 µM | IGROV-1 27.9 µM | OVCAR-3 21.8 µM | HCC 2998 57.5 µM | UO-31 66.7 µM

CCOC(=O)C1Cc2c(ccc(OC)c2OC)C(=O)C1N (stereo unspecified)
inactive: MOLT-4 91.4 µM | OVCAR-8 > 100 µM | HL-60 > 100 µM | RXF 393 > 100 µM | SR 41.2 µM | KM12 > 100 µM | SW-620 > 100 µM | NCI-H23 > 100 µM | SK-MEL-5 > 100 µM | HCT-116 > 100 µM | HOP-62 > 100 µM | U-251 > 100 µM | RPMI-8226 > 100 µM | IGROV-1 > 100 µM | OVCAR-3 93.1 µM | HCC 2998 > 100 µM | UO-31 > 100 µM
